According to patent US20230212549A1, “COMPOUNDS COMPRISING A […] LIGAND AND USE THEREOF” (priority 2021, published 2023):
Numbered stars: 1 amine (or outer) side, 2 acyl side, 3 side chain; on linkers, the order of the positions; unused ones are H or OH. Bridge positions count the residues as written; N and C are the ends. Square brackets hold non-standard residues; d marks the D form. Peptide text beside a SMILES is read from it. * marks the point of attachment. ξ: configuration not given here. X1 = NCCNCC(CNCCN)C(=O)N1CCN(CC(=O)NCCCOCCOCCOCCCN*)CC1; Pyridine(3,5-bisCH2) = c1ncc(C[*:2])cc1C[*:1]; mXylylene = c1cc(C[*:1])cc(C[*:2])c1; PEG6 = NCCOCCOCCOCCOCCOCCOCCC(=O)O; Suc = O=C(CCC(=O)[*:2])[*:1]; Nle = CCCC[C@H](N)C(=O)O; X2 = NCCNCC(CNCCN)C(=O)*; ξC = NC(CS)C(=O)O; βAla = NCCC(=O)O

How the values were obtained:
Human recombinant FAP [1] = molecular target: T1, Human recombinant FAP (Homo sapiens, UniProt Q12884); test: FRET-based FAP protease activity assay; assay type: biochemical; set-up: purchased R&D systems 3715-SE; conditions: for IC50: pIC50 Category (activity), Recombinant human FAP; for pIC50 Category (activity): FRET-peptide substrate, 37° C.
Human recombinant FAP [2] = molecular target: T1, Human recombinant FAP; test: Surface plasmon resonance (Biacore) assay; assay type: binding; conditions: for pKD Category: Biacore, SCK mode, 25° C.
in vivo = conditions: swiss nude, mouse, iv
[3] = molecular target: T2, FAP-expressing human WI-38 fibroblasts (Homo sapiens, UniProt Q12884); test: Competitive FACS binding assay; conditions: for pIC50 Category (FACS): competition with 3 nM Cy5-labeled compound, 4° C., 1 hour, WI-38 fibroblasts
T2 construct: FAP-expressing human WI-38 fibroblasts (ECACC) were cultured in EMEM; host or cells: WI-38 human fibroblasts
Procedure: Cells were analyzed in an Attune NxT flow cytometer. […] […].
Cells were analyzed in an Attune NxT flow cytometer. […]

[4] = Radiochemical purity by HPLC of ^99mTc-labeled compounds; assay type: physicochemical; conditions: 99Tc-labeled compounds
Procedure: 100-500 MBq of ^99mTcO4 (in saline) were mixed with 11 μl of 0.5 M phosphate buffer pH 11.5-12.0 and 1.1 μl of 0.1 M trisodium citrate per 100 μl radionuclide solution. […] The mixture was incubated for 30 min at 25-50′° C. At the end of the incubation time, the mixture was neutralized with 3.0 μl 1 M HCl per 10 μl phosphate buffer and TWEEN-20 was added at a final concentration of 0.100.

HEK-FAP tumor = conditions: ^99mTc-labeled, SPECT/CT; for uptake BPS 1 h / uptake BPS 3 h / uptake BPS 6 h: BPS (blood pool surrogate); for uptake BPS 1 h / uptake Tumor 1 h / uptake Kidneys 1 h: 1 h post tracer injection; for uptake BPS 3 h / uptake Tumor 3 h / uptake Kidneys 3 h: 3 h post tracer injection; for uptake BPS 6 h / uptake Tumor 6 h / uptake Kidneys 6 h: 6 h post tracer injection; for uptake Tumor 1 h / uptake Tumor 3 h / uptake Tumor 6 h: HEK-FAP tumor

T2 sequence (Q12884 whole entry): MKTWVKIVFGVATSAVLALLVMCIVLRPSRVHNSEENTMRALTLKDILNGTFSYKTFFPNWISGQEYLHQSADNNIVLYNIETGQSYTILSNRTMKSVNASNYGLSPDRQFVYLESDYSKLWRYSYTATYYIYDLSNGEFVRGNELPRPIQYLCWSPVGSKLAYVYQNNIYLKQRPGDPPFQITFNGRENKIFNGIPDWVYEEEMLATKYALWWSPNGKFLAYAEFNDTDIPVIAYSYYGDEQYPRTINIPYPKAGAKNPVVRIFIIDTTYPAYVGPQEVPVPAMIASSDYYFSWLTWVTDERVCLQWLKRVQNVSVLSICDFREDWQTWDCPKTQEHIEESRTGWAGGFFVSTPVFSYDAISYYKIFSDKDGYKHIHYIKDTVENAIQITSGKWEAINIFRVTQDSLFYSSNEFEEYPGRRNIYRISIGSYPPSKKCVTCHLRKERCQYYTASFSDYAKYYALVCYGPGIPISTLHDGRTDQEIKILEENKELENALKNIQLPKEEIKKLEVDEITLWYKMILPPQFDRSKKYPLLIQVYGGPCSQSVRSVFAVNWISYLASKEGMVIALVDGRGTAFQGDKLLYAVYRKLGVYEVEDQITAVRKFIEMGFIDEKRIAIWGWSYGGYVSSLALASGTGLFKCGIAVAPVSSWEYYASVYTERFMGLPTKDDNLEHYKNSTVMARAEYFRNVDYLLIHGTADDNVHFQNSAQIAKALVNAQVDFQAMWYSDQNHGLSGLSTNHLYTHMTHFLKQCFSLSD
T1 sequence (Q12884 whole entry): as above

Row | Molecule | IC50 (Human recombinant FAP [1]) | Kd (Human recombinant FAP [2]) | tissue uptake at 1 h (in vivo; blood pool surrogate (BPS)) | tissue uptake at 3 h (in vivo; blood pool surrogate (BPS)) | tissue uptake at 6 h (in vivo; blood pool surrogate (BPS)) | tissue uptake at 1 h (in vivo; kidneys) | tissue uptake at 3 h (in vivo; kidneys) | tissue uptake at 6 h (in vivo; kidneys) | tissue uptake at 1 h (in vivo; tumor) | tissue uptake at 3 h (in vivo; tumor) | tissue uptake at 6 h (in vivo; tumor) | IC50 [3] | HPLC Area % at end of synthesis [4] | HPLC Area % appr. 4 h post end of synthesis [4] | further results
1 | CCCC[C@H](NC(=O)CCOCCOCCOCCOCCOCCOCCNC(=O)C(CNCCN)CNCCN)C(=O)N[C@H]1CSCc2cncc(c2)CSCC(C(=O)O)NC(=O)[C@H](Cc2ccccc2)NC(=O)[C@H](CCC(N)=O)NC(=O)[C@H]([C@@H](C)O)NC(=O)[C@@H]2CCCN2C(=O)[C@@H]2CCCN2C1=O (stereo partly drawn) [3BP-4550, N4Ac-PEG6-Nle-[Cys(3Lut)-Pro-Pro-Thr-Gln-Phe-Cys]-OH] | 10 to 79.4 nM | 10 to 79.4 nM | 0.06 %ID/g | 0.03 %ID/g | 0.04 %ID/g | 0.92 %ID/g | 0.62 %ID/g | 0.38 %ID/g | 6.14 %ID/g | 4.91 %ID/g | 2.91 %ID/g | 100 to 794 nM | 100% |  | HPLC Area % appr. 4 h post end of synthesis ([4]; (3 h)): 98.0%
2 | CCCC[C@H](NC(=O)CCOCCOCCOCCOCCOCCOCCNC(=O)C(CNCCN)CNCCN)C(=O)N[C@H]1CSCc2cccc(c2)CSCC(C(=O)O)NC(=O)[C@H](Cc2ccccc2)NC(=O)[C@H](CCC(N)=O)NC(=O)[C@H]([C@@H](C)O)NC(=O)[C@@H]2CCCN2C(=O)[C@@H]2CCCN2C1=O (stereo partly drawn) [3BP-4551, N4Ac-PEG6-Nle-[Cys(3MeBn)-Pro-Pro-Thr-Gln-Phe-Cys]-OH] | 10 to 79.4 nM | 10 to 79.4 nM | 0.18 %ID/g | 0.07 %ID/g | 0.04 %ID/g | 4.34 %ID/g | 1.18 %ID/g | 0.5 %ID/g | 10.6 %ID/g | 7.31 %ID/g | 4.59 %ID/g | 10 to 79.4 nM | 94.1% | 90.8% | 
3 | CCCC[C@H](NC(=O)CCOCCOCCOCCOCCOCCOCCNC(=O)C(CNCCN)CNCCN)C(=O)N[C@H]1CSCc2cncc(c2)CSCC(C(=O)O)NC(=O)[C@H](Cc2ccccc2)NC(=O)[C@H](CCC(=O)O)NC(=O)[C@H]([C@@H](C)O)NC(=O)[C@@H]2CCCN2C(=O)[C@@H]2CCCN2C1=O (stereo partly drawn) [3BP-4773, N4Ac-PEG6-Nle-[Cys(3Lut)-Pro-Pro-Thr-Glu-Phe-Cys]-OH] ({X2-PEG6}-[Nle]CPPTEF[ξC]-OH; linker 2-8 via Pyridine(3,5-bisCH2)) | 10 to 79.4 nM | 10 to 79.4 nM | 0.25 %ID/g | 0.09 %ID/g | 0.06 %ID/g | 6.64 %ID/g | 4.71 %ID/g | 3.12 %ID/g | 6.19 %ID/g | 6.19 %ID/g | 5.42 %ID/g | 10 to 79.4 nM | 95.8% |  | 
4 | CCCC[C@H](NC(=O)CCC(=O)NCCCOCCOCCOCCCNC(=O)CN1CCN(C(=O)C(CNCCN)CNCCN)CC1)C(=O)N[C@H]1CSCc2cncc(c2)CSCC(C(=O)O)NC(=O)[C@H](Cc2ccccc2)NC(=O)[C@H](CCC(=O)O)NC(=O)[C@H]([C@@H](C)O)NC(=O)[C@@H]2CCCN2C(=O)[C@@H]2CCCN2C1=O (stereo partly drawn) [3BP-4775, N4Ac-PPAc-Ttds-Nle-[Cys(3Lut)-Pro-Pro-Thr-Glu-Phe-Cys]-OH] ({X1-Suc}-[Nle]CPPTEF[ξC]-OH; linker 2-8 via Pyridine(3,5-bisCH2)) | 10 to 79.4 nM | 10 to 79.4 nM | 0.21 %ID/g | 0.18 %ID/g | 0.04 %ID/g | 8.98 %ID/g | 6.31 %ID/g | 4.28 %ID/g | 7.88 %ID/g | 6.28 %ID/g | 4.55 %ID/g | 10 to 79.4 nM | 86.4% | 88.1% | 
5 | CCCC[C@H](NC(=O)CCC(=O)NCCCOCCOCCOCCCNC(=O)CN1CCN(C(=O)C(CNCCN)CNCCN)CC1)C(=O)N[C@H]1CSCc2cccc(c2)CSC[C@@H](C(=O)NCCC(=O)O)NC(=O)[C@H](Cc2ccccc2)NC(=O)[C@H](CCC(=O)O)NC(=O)[C@H]([C@@H](C)O)NC(=O)[C@@H]2CCCN2C(=O)[C@@H]2CCCN2C1=O [3BP-4784, N4Ac-PPAc-Ttds-Nle-[Cys(3MeBn)-Pro-Pro-Thr-Glu-Phe-Cys]-Bal-OH] ({X1-Suc}-[Nle]CPPTEFC[βAla]-OH; linker 2-8 via mXylylene) | < 10 nM | < 10 nM | 0.9 %ID/g | 0.63 %ID/g | 0.38 %ID/g | 1.61 %ID/g | 1.23 %ID/g | 1.01 %ID/g | 7.65 %ID/g | 7.43 %ID/g | 7.44 %ID/g | < 10 nM | 96.6% | 94.9% | 
6 | CCCC[C@H](NC(=O)CCC(=O)NCCCOCCOCCOCCCNC(=O)CN1CCN(C(=O)C(CNCCN)CNCCN)CC1)C(=O)N[C@H]1CSCc2cccc(c2)CSC[C@@H](C(=O)NCCC(=O)O)NC(=O)[C@H](Cc2ccccc2)NC(=O)[C@H](CCC(N)=O)NC(=O)[C@H]([C@@H](C)O)NC(=O)[C@@H]2CCCN2C(=O)[C@@H]2CCCN2C1=O [3BP-4960, N4Ac-PPAc-Ttds-Nle-[Cys(3MeBn)-Pro-Pro-Thr-Gln-Phe-Cys]-Bal-OH] | < 10 nM | < 10 nM | 0.74 %ID/g | 0.47 %ID/g | 0.17 %ID/g | 1.96 %ID/g | 1.21 %ID/g | 1.21 %ID/g | 10.5 %ID/g | 12.8 %ID/g | 12.1 %ID/g | < 10 nM | 95.2% | 92.3% | 
7 | N4Ac-PEG6-Nle-[Cys-(3MeBn)-Pro-Pro-Thr-Glu-Phe-Cys]-OH [3BP-4221] |  |  |  |  |  |  |  |  |  |  |  |  | 99.0% |  | pIC50 Category (activity) (Human recombinant FAP [1]): B (category B for pIC50 values between 7.1 and 8.0); pKD Category (Human recombinant FAP [2]): A (Category A stands for pKD values >8.0); uptake BPS 1 h (HEK-FAP tumor): 0.54 % ID/g; uptake BPS 3 h (HEK-FAP tumor): 0.27 % ID/g; uptake BPS 6 h (HEK-FAP tumor): 0.16 % ID/g; uptake Tumor 1 h (HEK-FAP tumor): 8.51 % ID/g; uptake Tumor 3 h (HEK-FAP tumor): 8.32 % ID/g; uptake Tumor 6 h (HEK-FAP tumor): 7.97 % ID/g; uptake Kidneys 1 h (HEK-FAP tumor): 4.74 % ID/g; uptake Kidneys 3 h (HEK-FAP tumor): 3.73 % ID/g; uptake Kidneys 6 h (HEK-FAP tumor): 2.56 % ID/g; pIC50 Category (FACS) [3]: B (category B for pIC50 values between 7.1 and 8.0); HPLC Area % appr. 4 h post end of synthesis ([4]; (5.5 h)): 97.4%
8 | N4Ac-Ttds-Nle-[Cys-(3MeBn)-Pro-Pro-Thr-Gln-Phe-Cys]-OH [3BP-4219] |  |  |  |  |  |  |  |  |  |  |  |  | 94.8% |  | pIC50 Category (activity) (Human recombinant FAP [1]): A (pIC50 category A stands for pIC50 values >8.0); pKD Category (Human recombinant FAP [2]): A (Category A stands for pKD values >8.0); uptake BPS 1 h (HEK-FAP tumor): 0.21 % ID/g; uptake BPS 3 h (HEK-FAP tumor): 0.09 % ID/g; uptake BPS 6 h (HEK-FAP tumor): 0.07 % ID/g; uptake Tumor 1 h (HEK-FAP tumor): 6.80 % ID/g; uptake Tumor 3 h (HEK-FAP tumor): 7.62 % ID/g; uptake Tumor 6 h (HEK-FAP tumor): 4.52 % ID/g; uptake Kidneys 1 h (HEK-FAP tumor): 1.85 % ID/g; uptake Kidneys 3 h (HEK-FAP tumor): 1.84 % ID/g; uptake Kidneys 6 h (HEK-FAP tumor): 0.55 % ID/g; pIC50 Category (FACS) [3]: B (category B for pIC50 values between 7.1 and 8.0); HPLC Area % appr. 4 h post end of synthesis ([4]; (5.5 h)): 93.8%
